Experimental data from PMC8273887 (Journal of Medicinal Chemistry, 2021).
“Also recorded” adds a separate entry of the source. Values belong to the substance of their own block, whether it stands above or below them. Bridge positions count the residues as written; N and C are the ends. Ends that are not written are not given here.

Tests used:
trypsin = assay: trypsin
pepsin = assay: simulated gastric fluid (SGF, containing pepsin, pH 1.3); conditions: porcine, 37 °C, up to 24 h
porcine pancreatin = assay: simulated intestinal fluid (SIF, containing pancreatic enzymes, pH 6.8); conditions: 37 °C, up to 24 h
CXCR4 = biological target: T1, CXCR4 (Homo sapiens, UniProt P61073); assay: Inositol 1 phosphate (IP1) accumulation assay (HTRF) in COS-7 cells transfected with CXCR4; format: cell-based; conditions: COS-7 transiently co-transfected with CXCR4-eYFP and chimeric GαΔ6qi4myr; stimulation 1 h, 37 °C, triplicate; HTRF; n ≥ 2 independent experiments; read-out: EC50 (CXCR4 activation, IP1 accumulation)
T1 construct: expressed in transfected cells; host or cells: COS-7 (African green monkey), transient co-transfection with GαΔ6qi4myr
Text: CXCR4 is a member of the G protein-coupled receptor (GPCR) family[58] and proposed as a target receptor for TFF3 to mediate wound healing.[30],[39] We therefore pharmacologically characterized TFF3(C^57Acm) and TFF3 homodimer at CXCR4. We used a chimeric Gαiq protein to switch the pathway to the Gαq signaling, which leads to the activation of the phospholipase and allows measurement of CXCR4 activation through the production of inositol 1 phosphate (IP1).[61]−[63] We measured IP1 accumulation upon stimulation with TFF3(C^57Acm) and TFF3 homodimer in fibroblast-like COS-7 cells transiently transfected with CXCR4.[58] This is a competitive immunoassay, based on the HTRF technology, where native IP1 produced by cells compete with labeled IP1 (acceptor) for binding to anti-IP1-cryptate (donor). The specific signal (i.e., Förster resonance energy transfer, FRET) is inversely proportional to the concentration of IP1 in the sample. The calculation of the fluorescence ratio eliminates possible medium interferences.[64]
COS-7 cells (fibroblast-like cells from African green monkey) were transiently co-transfected with the CXCR4 C-terminally fused to eYFP in pVitro2 vector and the untagged chimeric G protein GαΔ6qi4myr in pcDNA3.1 plasmid using Metafectene Pro according to manufacturer’s protocol. The cells were cultured in DMEM with higher glucose and supplemented with 10% FCS without any antibiotics at 37 °C and 5% CO2 in 95% humidity. Cisbio IP-One Gq assay kit was used according to previous description with minor modifications to measure activity.[80] Briefly, a standard curve was prepared in HBSS (Hanks’ balanced salt solution) with 20 mM LiCl to determine the linear range of the assay and 10 000 cells/well were cultured overnight in a 384-well flat white plate (Greiner Bio-one GmbH, Frickenhausen, Germany). TFF3 and its homodimer as well as CXCL12 were diluted in HBSS containing 20 mM LiCl. Stimulation was carried out for 1 h in triplicate at 37 °C. Subsequently, 3 μL of IP1-d2 and 3 μL of Ab-cryptate in lysis buffer were added to the wells and incubated on a tumbler for 60 min at 25 °C. Fluorescence was then measured at 620 and 665 nm and the HTRF (homogeneous time-resolved fluorescence) ratio (665/620 nm) was calculated. Data analysis was performed with Prism (version 7, GraphPad, La Jolla). Tested compounds were normalized to CXCL12 wild type, with the highest HTRF ratio set to 0% and the lowest HTRF ratio set to 100% response. […] The final concentration range of 10^–12 to 10^–5 M to CXCL12 and 1 or 10 μM to TFF3(C^57Acm) and TFF3 homodimer was achieved by adding the compounds from a threefold concentrated stock solution.

SH-SY5Y cells = assay: Antiapoptotic assay (etoposide-induced cell death, caspase-3/7 activity); format: cell-based, human; conditions: etoposide 10 μM and peptide 10 μM added at the same time, caspase-3/7 activity after 6 h, n ≥ 3 independent experiments
Description: (A) Cell death was induced with etoposide (10 μM), and cells were treated with 10 μM of TFF3. Etoposide and TFF3 were added at the same time. Caspase-3/7 activity was measured after 6 h. […] Z-DEVD-FMK (50 μM; caspase-3 inhibitor) was used as the positive control. E: etoposide, E + C3I: etoposide + caspase-3 inhibitor. One-way analysis of variance (ANOVA) followed by Dunnett correction was performed to assess differences between treated cells and etoposide only. *p < 0.05, **p < 0.01.
SH-SY5Y cells were seeded (13–15 × 10^3 cells/well) in 96-well microplates in DMEM with 10% (v/v) fetal calf serum (FCS; Gibco), 2 mM L-glutamine, and 100 units/mL penicillin/streptomycin. The media was replaced with low riboflavin, complete Ham’s F12 medium with 10% (v/v) fetal calf serum, 2 mM L-glutamine, and 100 units/mL penicillin/streptomycin before the live-cell imaging. Cells were treated with the etoposide or the caspase-3 inhibitor or TFF3(C^57Acm) or TFF3 homodimer in the presence of IncuCyte caspase-3/7 green apoptosis reagent. Data were acquired using an IncuCyte ZOOM instrument with standard scan type setting (4 images per well) every 2 h for 48 h.

[1] = Stability in simulated intestinal fluid (SIF); format: in vitro ADME; conditions: pig, simulated intestinal fluid (SIF) with porcine pancreatin
Description: (§1) We exposed TFF3(C^57Acm) and TFF3 homodimer to simulated gastric fluid (SGF, containing pepsin, pH 1.3) and simulated intestinal fluid (SIF, containing pancreatic enzymes, pH 6.8), and monitored the mixture over 24 h by analytical RP-HPLC and MS. The N- and C-termini of TFF3 and its homodimer were readily truncated in both SGF and SIF (Figure 4A,B). In SGF, TFF3 was cleaved at Leu^6/Ser^7 followed by cleavage at Glu^54/Ala^55 (t1/2 < 5 min). In SIF, TFF3 was cleaved first at Thr^58/Phe^59 followed by cleavage at Leu^6/Ser^7, Glu^56/Cys^57, and Ala^55/Glu^56 (t1/2 < 5 min). TFF3 homodimer, in both SGF (t1/2 ∼ 40 min) and SIF (t1/2 < 5 min), was first broken down to monomeric TFF3 through simultaneous cleavage at Leu^6 and Glu^54 or Ala^55, eventually leading to the same metabolites as TFF3 (Figure 4B).
(§2) Simulated gastric fluid (SGF) was prepared by dissolving 20 mg of NaCl and 8 mg of pepsin in 70 μL of concentrated HCl (32%), and the volume was diluted to 10 mL with Milli-Q water (pH 1.3).[76],[77] Simulated intestinal fluid (SIF) was prepared by dissolving 68 mg of KH2PO4 in 500 μL of Milli-Q water followed by the addition of 800 μL of 0.2 M NaOH and 100 mg of porcine pancreatin, and the volume was adjusted to 10 mL with Milli-Q water (pH 6.8).[76],[77] Peptide stock solution (1 mM; 15 μL) was added to SGF (285 μL) or SIF (285 μL) and incubated at 37 °C. Samples (30 μL) from SGF and SIF were taken at 0, 5, 15, and 30 min and 1, 2, 4, 8, and 24 h timepoints and subsequently quenched with 30 μL of 0.2 M Na2CO3 (SGF) or 30 μL of 5% aqueous TFA (SIF). The samples were analyzed by analytical RP-HPLC (30 μL) and/or LC-MS (20 μL). The amount of peptide remaining was determined by measuring the peak area and expressing it as a % of the peak area at time 0. Peptide half-life (t1/2) was determined from the peptide degradation profiles using an exponential one-phase decay fit in Prism (version 7, GraphPad, La Jolla). LC-MS analysis was performed in a Q-Star Pulsar mass spectrometer (SCIEX, Ontario, Canada), and the raw data spectra were processed using the peptide reconstruction tool in the BioAnalyst software to identify the mass of the metabolites. The stability of the disulfide bonds was assessed through incubation of the peptides (10 μM) with 10 equiv of reduced glutathione (GSH; 100 μM) in sodium phosphate (50 mM) buffer at pH 7.2. Samples were taken at timepoints 0, 4, 8, and 24 h, quenched by adding 10% TFA, and analyzed by analytical RP-HPLC using an analytical C3 column (Agilent Zorbax SB-C3, 5 μm, 2.1 mm × 250 mm, 300 Å).

[2] = Stability in simulated gastric fluid (SGF); format: in vitro ADME, porcine
Description: as §1, §2

T1 sequence (P61073 whole entry): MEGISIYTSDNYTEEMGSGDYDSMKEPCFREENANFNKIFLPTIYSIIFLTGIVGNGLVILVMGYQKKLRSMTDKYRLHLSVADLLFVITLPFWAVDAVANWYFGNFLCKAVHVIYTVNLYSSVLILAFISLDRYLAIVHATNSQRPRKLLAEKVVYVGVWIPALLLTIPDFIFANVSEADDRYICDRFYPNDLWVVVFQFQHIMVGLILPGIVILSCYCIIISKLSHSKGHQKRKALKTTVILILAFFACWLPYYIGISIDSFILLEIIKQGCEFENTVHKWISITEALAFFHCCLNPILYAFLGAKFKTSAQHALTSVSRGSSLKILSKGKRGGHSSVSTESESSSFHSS

Substance: EEYVGLSANQCAVPAKDRVDCGYPHVTPKECNNRGCCFDSRIPGVPWCFKPLQEAEC(Acm)TF
cleaved bond (porcine pancreatin): Thr58-Phe59, first_seen; also recorded: Leu6-Ser7; also recorded: Glu56-Cys57; also recorded: Ala55-Glu56
cleaved bond (pepsin): Leu6-Ser7, first_seen; also recorded: Glu54-Ala55

Substance: CXCL12: natural CXCR4 ligand; recombinant human CXCL12 from E. coli with additional N-terminal methionine; positive control [reference compound]
EC50 (CXCR4): 5.9 nM

Substance: SANQCAVPAKDRVDCGYPHVTPKECNNRGCCFDSRIPGVPWCFKPLQE
not cleaved (pepsin): stable in SGF with a half-life over 24 h

Substance: SANQCAVPAKDRVDCGYPHVTPKECNNRGCCFDSRIPGVPWCFKPLQE-NH2 (disulfide 5-31, 15-30, 25-42) [TFF3_7-54]
reduction of etoposide-induced cell death (caspase-3/7 active objects) (SH-SY5Y cells): active in the anti-apoptosis assay, equivalent to TFF3 and TFF3 homodimer
half-life at 50 μM ([1]; pH 6.8, 15 μL of 1 mM stock in 285 μL, 37 °C, monitored over 24 h, RP-HPLC/LC-MS, read-out: half-life in SIF): > 24 h
metabolised at 24 h, 50 μM ([1]; pH 6.8, 37 °C, 24 h, RP-HPLC/MS, read-out: degradation in SIF within 24 h): ~25%
stability in SGF over 24 h (in words) ([2]; SGF with pepsin, pH 1.3, 37 °C, 24 h, RP-HPLC and MS): remained stable
half-life at 50 μM ([2]; simulated gastric fluid (SGF) with pepsin, pH 1.3, 15 μL of 1 mM stock in 285 μL, 37 °C, monitored over 24 h, RP-HPLC/LC-MS, read-out: half-life in SGF): > 24 h

The next lines start with results.

not cleaved (pepsin): stable in SGF for 24 h
Substance: QCAVPAKDRVDCGYPHVTPKECNNRGCCFDSRIPGVPWCFK
cleaved bond (trypsin): cleavages at Lys^16, Arg^18, and Arg^41; also recorded: Arg41-Ile42
fragment found (trypsin): Glu^30-Arg^34; also recorded: Ile^42-Lys^50

not cleaved (porcine pancreatin): remained stable even after 24 h
Substance: S^7ANQCAVPAKDRVDCGYPHVTPKECNNRGCCFDSRIPGVPWCFKPLQEA^55
